Assay results taken from ChEMBL document CHEMBL1125989, “Preparation and evaluation of optically active 4,4-difluorothreonine as a potent novel antitumor material” (Bioorg Med Chem Lett, 1991).
≈ marks a conversion by molar mass, not a printed value.

Experiments:
L1210 [1] = test: Concentration at 50 percent inhibition of cell growth against mouse leukemia 1210 cell line in vitro; format: functional, cell-based
PC10 [2] = test: Concentration at 50 percent inhibition of cell growth against human […] cell line in vitro; format: functional, cell-based
CCRF-CEM = test: Concentration at 50 percent inhibition of cell growth against human leukemia CCRF CEM cell line in vitro; format: functional, cell-based
L1210 [3] = test: Tested for the effect of stereochemistry on the growth of L1210 mouse leukemia cell line in vitro; format: functional, cell-based
KB = test: Concentration at 50 percent inhibition of cell growth against human cancer KB cell line in vitro; format: functional, cell-based
Mus musculus [4] = test: Tested for body weight of CDF1 mice bearing P388 leukemia at dose of 100 mg/kg/day on day 1; format: functional
Mus musculus [5] = test: Tested for body weight of CDF1 mice bearing P388 leukemia at dose of 20 mg/kg/day on day 1; format: functional
Mus musculus [6] = test: Tested for body weight of CDF1 mice bearing P388 leukemia at dose of 250 mg/kg/day on day 5; format: functional
Mus musculus [7] = test: Tested for mean survival time of tested group to that of mean survival time of control group of mice bearing P388 leukemia at dose of 20 mg/kg/day; format: functional
Mus musculus [8] = test: Tested for body weight of CDF1 mice bearing P388 leukemia at dose of 100 mg/kg/day on day 5; format: functional
Mus musculus [9] = test: Tested for body weight of CDF1 mice bearing P388 leukemia at dose of 20 mg/kg/day on day 5; format: functional
Mus musculus [10] = test: Tested for mean survival time of tested group to that of mean survival time of control group of mice bearing P388 leukemia at dose of 250 mg/kg/day; format: functional
Mus musculus [11] = test: Tested for body weight of CDF1 mice bearing P388 leukemia at dose of 250 mg/kg/day on day 1; format: functional
Mus musculus [12] = test: Tested for mean survival time of tested group to that of mean survival time of control group of mice bearing P388 leukemia at dose of 100 mg/kg/day; format: functional
PC10 [13] = test: Concentration at 50 percent inhibition of cell growth against human cancer PC10 cell line in vitro; format: functional, cell-based

`NC(C(=O)O)C(O)C(F)F` (racemic) showed an IC50 (L1210 [1]) of 1.1 µg/mL (≈ 7.09 µM), an IC50 (PC10 [2]) of 5.1 µg/mL (≈ 32.9 µM) and an IC50 (CCRF-CEM) of 1.7 µg/mL (≈ 11 µM). The IC50 (L1210 [3]) was 3.3 µg/mL (≈ 21.3 µM) and the IC50 (KB) was 2.7 µg/mL (≈ 17.4 µM).
Compound `C[C@H](O)[C@H](N)C(=O)O` has a Body weight (Mus musculus [4]) of 21.3 g, a Body weight (Mus musculus [5]) of 22 g and a Body weight (Mus musculus [6]) of 22 g. It also gave a T/C (Mus musculus [7]) of 114%, a Body weight (Mus musculus [8]) of 21.7 g and a Body weight (Mus musculus [9]) of 22 g. For the same compound, the IC50 (L1210 [3]) was 2.8 µg/mL (≈ 23.5 µM), the T/C (Mus musculus [10]) was 170% and the Body weight (Mus musculus [11]) was 22.7 g. The T/C (Mus musculus [12]) was 122%.
Compound `C[C@@H](O)[C@@H](N)C(=O)O` [D-allothreonine] has an IC50 (L1210 [3]) of over 100 µg/mL.
With `O=c1[nH]cc(F)c(=O)[nH]1` [FLUOROURACIL] the IC50 (L1210 [1]) was 0.36 µg/mL (≈ 2.77 µM), the IC50 (CCRF-CEM) was 0.95 µg/mL (≈ 7.3 µM) and the IC50 (KB) was 12.1 µg/mL (≈ 93 µM). For the same compound, the IC50 (PC10 [13]) was 42 µg/mL (≈ 323 µM).
